From patent publication US8779197B2, “Aryl amides useful as inhibitors of voltage-gated sodium channels” (Vertex Pharmaceuticals Incorporated, priority 2007, dated 2014)
Like-named read-outs stand apart in the source and are kept apart here.

Columns and labels:
[1] = biological target: T1, NaV1.3 (Homo sapiens, UniProt Q9NY46); experiment: Activity against NaV 1.3 channel (optical membrane potential assay); assay type: cell-based; parameters: expressed in transfected cells; host or cells: HEK293
Experimental: (§1) Compounds of the invention are useful as antagonists of voltage-gated sodium ion channels. Antagonist properties of test compounds were assessed as follows. Cells expressing the NaV of interest were placed into microtiter plates. After an incubation period, the cells were stained with fluorescent dyes sensitive to the transmembrane potential. The test compounds were added to the microtiter plate. The cells were stimulated with either a chemical or electrical means to evoke a NaV dependent membrane potential change from unblocked channels, which was detected and measured with trans-membrane potential-sensitive dyes. Antagonists were detected as a decreased membrane potential response to the stimulus. The optical membrane potential assay utilized voltage-sensitive FRET sensors described by Gonzalez and Tsien (See, Gonzalez, J. E. and R. Y. Tsien (1995) “Voltage sensing by fluorescence resonance energy transfer in single cells” Biophys J 69(4): 1272-80, and Gonzalez, J. E. and R. Y. Tsien (1997) “Improved indicators of cell membrane potential that use fluorescence resonance energy transfer” Chem Biol 4(4): 269-77) in combination with instrumentation for measuring fluorescence changes such as the Voltage/Ion Probe Reader (VIPR®) (See, Gonzalez, J. E., K. Oades, et al. (1999) “Cell-based assays and instrumentation for screening ion-channel targets” Drug Discov Today 4(9): 431-439).
(§2) C) VIPR® Optical Membrane Potential Assay Method with Electrical Stimulation
(§3) The following is an example of how NaV1.3 inhibition activity is measured using the optical membrane potential method#2. Other subtypes are performed in an analogous mode in a cell line expressing the NaV of interest.
HEK293 cells stably expressing NaV1.3 are plated into 96-well microtiter plates. After an appropriate incubation period, the cells are stained with the voltage sensitive dyes CC2-DMPE/DiSBAC2(3) as follows.
(§4) 10 mM CC2-DMPE is vortexed with an equivalent volume of 10% pluronic, followed by vortexing in required amount of HBSS containing 10 mM HEPES. Each cell plate will require 5 mL of 2×CC2-DMPE. 50 µL of 2×CC2-DMPE is to wells containing washed cells, resulting in a 10 μM final staining concentration. The cells are stained for 30 minutes in the dark at RT.
(§5) The required amount of 10 mM DISBAC2(3) is added to a 50 ml conical tube and mixed with 1 μL 10% pluronic for each mL of solution to be made and vortexed together. Then HBSS/HEPES is added to make up 2× solution. Finally, the ABSC1 is added.
(§6) The 2×DiSBAC2(3) solution can be used to solvate compound plates. Note that compound plates are made at 2× drug concentration. Wash stained plate again, leaving residual volume of 50 μL. Add 50 uL/well of the 2×DiSBAC2(3) w/ABSC1. Stain for 30 minutes in the dark at RT.
(§7) The electrical stimulation instrument and methods of use are described in ION Channel Assay Methods PCT/US01/21652, herein incorporated by reference. The instrument comprises a microtiter plate handler, an optical system for exciting the coumarin dye while simultaneously recording the coumarin and oxonol emissions, a waveform generator, a current- or voltage-controlled amplifier, and a device for inserting electrodes in well. Under integrated computer control, this instrument passes user-programmed electrical stimulus protocols to cells within the wells of the microtiter plate.
(§8) Assay Protocol • 1. Insert or use electrodes into each well to be assayed. • 2. Use the current-controlled amplifier to deliver stimulation wave pulses for 3 s. Two seconds of pre-stimulus recording are performed to obtain the un-stimulated intensities. Five seconds of post-stimulation recording are performed to examine the relaxation to the resting state.
Data are analyzed and reported as normalized ratios of background-subtracted emission intensities measured in the 460 nm and 580 nm channels. Background intensities are then subtracted from each assay channel. […]
Target sequence in this assay (Q9NY46 whole entry): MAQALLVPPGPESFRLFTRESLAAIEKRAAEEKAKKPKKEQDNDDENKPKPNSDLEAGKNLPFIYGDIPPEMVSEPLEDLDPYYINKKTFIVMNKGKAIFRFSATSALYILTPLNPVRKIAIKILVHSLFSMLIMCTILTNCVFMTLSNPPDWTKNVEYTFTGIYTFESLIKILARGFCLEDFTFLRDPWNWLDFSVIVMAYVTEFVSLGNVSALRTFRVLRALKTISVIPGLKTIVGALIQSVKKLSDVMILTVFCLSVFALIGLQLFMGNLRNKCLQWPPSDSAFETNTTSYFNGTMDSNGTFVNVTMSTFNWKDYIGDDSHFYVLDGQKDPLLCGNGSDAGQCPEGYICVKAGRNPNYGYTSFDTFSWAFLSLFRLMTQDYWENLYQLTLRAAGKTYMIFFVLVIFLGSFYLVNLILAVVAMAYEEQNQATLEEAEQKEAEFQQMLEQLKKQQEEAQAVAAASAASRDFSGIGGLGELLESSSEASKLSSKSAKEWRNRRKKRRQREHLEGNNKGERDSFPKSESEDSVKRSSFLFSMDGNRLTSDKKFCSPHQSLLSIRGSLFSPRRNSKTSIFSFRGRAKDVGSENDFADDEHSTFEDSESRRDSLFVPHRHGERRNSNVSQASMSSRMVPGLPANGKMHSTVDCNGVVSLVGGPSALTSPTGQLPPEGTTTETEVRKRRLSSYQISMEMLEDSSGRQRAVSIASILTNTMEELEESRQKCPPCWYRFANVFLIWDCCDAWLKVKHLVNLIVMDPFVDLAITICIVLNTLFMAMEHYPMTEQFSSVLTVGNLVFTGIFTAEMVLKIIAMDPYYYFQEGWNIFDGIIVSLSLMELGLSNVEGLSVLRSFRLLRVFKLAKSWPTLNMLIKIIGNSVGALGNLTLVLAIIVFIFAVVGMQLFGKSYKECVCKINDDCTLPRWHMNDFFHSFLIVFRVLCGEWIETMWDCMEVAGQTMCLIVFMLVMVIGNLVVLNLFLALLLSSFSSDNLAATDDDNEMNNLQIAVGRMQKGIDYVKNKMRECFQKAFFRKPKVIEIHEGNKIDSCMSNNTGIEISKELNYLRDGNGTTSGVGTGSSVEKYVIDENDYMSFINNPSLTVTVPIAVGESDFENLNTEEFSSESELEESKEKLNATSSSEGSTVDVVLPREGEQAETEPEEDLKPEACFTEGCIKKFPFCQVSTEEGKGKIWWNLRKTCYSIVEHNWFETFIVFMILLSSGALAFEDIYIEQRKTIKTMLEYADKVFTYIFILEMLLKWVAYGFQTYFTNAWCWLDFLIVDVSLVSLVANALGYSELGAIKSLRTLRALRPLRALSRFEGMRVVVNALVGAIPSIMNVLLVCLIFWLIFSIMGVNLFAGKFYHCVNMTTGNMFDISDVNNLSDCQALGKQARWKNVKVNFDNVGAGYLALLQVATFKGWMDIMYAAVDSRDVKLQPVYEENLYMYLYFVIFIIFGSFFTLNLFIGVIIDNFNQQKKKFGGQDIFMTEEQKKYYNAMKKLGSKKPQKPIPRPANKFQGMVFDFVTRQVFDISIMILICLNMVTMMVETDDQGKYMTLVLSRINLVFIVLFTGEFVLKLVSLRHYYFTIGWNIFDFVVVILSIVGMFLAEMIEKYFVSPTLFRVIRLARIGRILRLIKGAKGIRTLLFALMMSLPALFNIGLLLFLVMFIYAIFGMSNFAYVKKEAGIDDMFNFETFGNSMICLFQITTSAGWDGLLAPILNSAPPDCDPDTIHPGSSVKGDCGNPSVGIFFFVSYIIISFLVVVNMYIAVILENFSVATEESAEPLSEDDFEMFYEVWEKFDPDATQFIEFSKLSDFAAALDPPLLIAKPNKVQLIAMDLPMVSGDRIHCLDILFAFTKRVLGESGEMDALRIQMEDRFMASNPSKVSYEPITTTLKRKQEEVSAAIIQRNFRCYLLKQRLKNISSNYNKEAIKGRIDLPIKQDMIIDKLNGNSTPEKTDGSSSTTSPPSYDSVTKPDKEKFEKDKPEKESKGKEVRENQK

[2] = biological target: NaV 1.7 channel (Homo sapiens, UniProt Q15858); experiment: Activity against NaV 1.7 channel (optical membrane potential assay); assay type: cell-based
Experimental: as §1, §2, §3, §4, §5, §6, §7, §8
(§9) Data are analyzed and reported as normalized ratios of background-subtracted emission intensities measured in the 460 nm and 580 nm channels. Background intensities are then subtracted from each assay channel. Background intensities are obtained by measuring the emission intensities during the same time periods from identically treated assay wells in which there are no cells. The response as a function of time is then reported as the ratios obtained using the following formula: […]

[3] = biological target: NaV1.8 (Homo sapiens, UniProt Q9Y5Y9); experiment: Activity against NaV 1.8 channel (optical membrane potential assay); assay type: cell-based
Experimental: as §1, §2, §3, §4, §5, §6, §7, §8, §9

[4] = biological target: T1, NaV1.3; conditions: read-out: TTX IC50; cited from earlier work
Target sequence in this assay (Q9NY46 whole entry, looked up): as the sequence (Q9NY46 whole entry) above

[5] = biological target: NaV1.6 (Homo sapiens, UniProt Q9UQD0); conditions: read-out: TTX IC50; cited from earlier work
[6] = biological target: NaV1.9 (Homo sapiens, UniProt Q9UI33); conditions: read-out: TTX IC50; cited from earlier work
[7] = biological target: NaV1.1 (Homo sapiens, UniProt P35498); conditions: read-out: TTX IC50; cited from earlier work
[8] = biological target: NaV1.2 (Homo sapiens, UniProt Q99250); conditions: read-out: TTX IC50; cited from earlier work

NaV1.8, sequence (Q9Y5Y9 whole entry): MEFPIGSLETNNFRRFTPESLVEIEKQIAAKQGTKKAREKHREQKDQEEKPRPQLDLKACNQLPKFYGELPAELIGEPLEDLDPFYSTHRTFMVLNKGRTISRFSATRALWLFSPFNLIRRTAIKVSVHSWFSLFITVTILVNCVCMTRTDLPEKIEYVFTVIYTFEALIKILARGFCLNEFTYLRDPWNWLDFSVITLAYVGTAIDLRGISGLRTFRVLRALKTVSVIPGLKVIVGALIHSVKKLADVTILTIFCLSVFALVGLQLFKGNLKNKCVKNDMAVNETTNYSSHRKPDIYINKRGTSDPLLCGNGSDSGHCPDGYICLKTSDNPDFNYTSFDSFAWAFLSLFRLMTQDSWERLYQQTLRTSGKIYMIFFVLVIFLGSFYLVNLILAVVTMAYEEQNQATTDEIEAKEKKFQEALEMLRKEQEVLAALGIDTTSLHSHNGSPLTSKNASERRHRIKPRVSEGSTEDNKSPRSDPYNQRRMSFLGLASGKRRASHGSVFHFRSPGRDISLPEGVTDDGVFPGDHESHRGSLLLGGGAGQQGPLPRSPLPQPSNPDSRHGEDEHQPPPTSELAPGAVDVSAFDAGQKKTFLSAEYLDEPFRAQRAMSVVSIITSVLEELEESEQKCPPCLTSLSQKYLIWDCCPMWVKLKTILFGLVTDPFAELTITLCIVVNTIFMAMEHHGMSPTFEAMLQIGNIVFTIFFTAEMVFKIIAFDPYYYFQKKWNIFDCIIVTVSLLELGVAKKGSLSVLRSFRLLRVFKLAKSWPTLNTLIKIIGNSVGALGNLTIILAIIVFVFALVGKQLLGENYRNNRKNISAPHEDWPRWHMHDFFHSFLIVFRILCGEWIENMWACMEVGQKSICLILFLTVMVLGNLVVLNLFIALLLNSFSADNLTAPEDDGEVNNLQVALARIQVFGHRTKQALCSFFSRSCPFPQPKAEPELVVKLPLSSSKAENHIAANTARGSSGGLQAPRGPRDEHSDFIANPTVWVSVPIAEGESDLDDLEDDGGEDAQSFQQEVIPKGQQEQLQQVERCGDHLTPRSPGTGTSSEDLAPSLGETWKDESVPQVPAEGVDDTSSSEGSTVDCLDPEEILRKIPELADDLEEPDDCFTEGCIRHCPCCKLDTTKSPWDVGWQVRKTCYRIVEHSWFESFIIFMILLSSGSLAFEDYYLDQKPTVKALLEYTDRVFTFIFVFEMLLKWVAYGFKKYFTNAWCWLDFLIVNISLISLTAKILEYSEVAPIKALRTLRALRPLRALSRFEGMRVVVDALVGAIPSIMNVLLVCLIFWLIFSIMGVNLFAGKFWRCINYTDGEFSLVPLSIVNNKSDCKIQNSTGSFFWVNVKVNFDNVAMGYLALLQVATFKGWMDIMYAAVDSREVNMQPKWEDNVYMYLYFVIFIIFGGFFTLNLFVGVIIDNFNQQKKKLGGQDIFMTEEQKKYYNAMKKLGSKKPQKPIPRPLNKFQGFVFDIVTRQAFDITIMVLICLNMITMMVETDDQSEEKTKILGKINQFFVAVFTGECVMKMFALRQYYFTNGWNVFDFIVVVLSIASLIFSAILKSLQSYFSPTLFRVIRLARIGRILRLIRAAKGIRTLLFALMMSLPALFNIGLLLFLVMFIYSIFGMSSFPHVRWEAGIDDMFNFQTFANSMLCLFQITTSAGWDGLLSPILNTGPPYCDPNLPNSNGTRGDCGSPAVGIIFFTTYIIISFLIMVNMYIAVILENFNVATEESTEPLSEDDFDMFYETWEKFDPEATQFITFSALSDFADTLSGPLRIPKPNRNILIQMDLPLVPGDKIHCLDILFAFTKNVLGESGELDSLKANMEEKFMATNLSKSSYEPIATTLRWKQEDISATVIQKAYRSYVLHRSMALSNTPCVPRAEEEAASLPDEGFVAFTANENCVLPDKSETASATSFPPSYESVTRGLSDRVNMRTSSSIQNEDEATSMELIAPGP

| SMILES | IC50 [1] [µM] | IC50 [2] [µM] | IC50 [3] [µM] | also measured |
| --- | --- | --- | --- | --- |
| NC(=O)c1cccc(NC(=O)c2ccccc2Nc2cccc(F)c2)c1 [Compound 2] | > 20 |  |  |  |
| CC(C)(C)c1ccc(C(=O)Nc2cccc(C(N)=O)c2)c(Oc2ccc(F)cc2Cl)c1 [Compound 8] | 10 to 20 | 2 to 10 | < 2 |  |
| NC1=N[C@H](O)[C@H]2[C@H]3O[C@]4(O)O[C@@H]([C@@H](O)[C@@]2(N1)[C@@H]4O)[C@]3(O)CO [TTX, tetrodotoxin] |  |  |  | IC50 [4]: 0.015 µM; IC50 [5]: 0.006 µM; IC50 [6]: 1 µM; IC50 [7]: 0.01 µM; IC50 [8]: 0.01 µM |
| CN(C(=O)c1ccc(C(C)(C)C)cc1Oc1ccc(F)cc1Cl)c1cccc(S(C)(=O)=O)c1 [Compound 19, 4-tert-Butyl-2-(2-chloro-4-fluorophenoxy)-N-methyl-N-(3-(methylsulfonyl)phenyl)benzamide] | 2 to 10 | 2 to 10 | 2 to 10 |  |
| CC(C)(C)c1ccc(C(=O)Nc2cccc(S(C)(=O)=O)c2)c(Oc2cccc(C(F)(F)F)n2)c1 [Compound 17] | 10 to 20 | 10 to 20 | < 2 |  |
| NC(=O)c1cccc(NC(=O)c2ccccc2Oc2ccc(C(F)(F)F)cc2)c1 [Compound 5] | 10 to 20 |  |  |  |
| CNC(=O)c1cccc(NC(=O)c2ccc(C(C)(C)C)cc2Oc2ccc(F)cc2Cl)c1 [Compound 11] | 2 to 10 | 2 to 10 | < 2 |  |
| NC(=O)c1cccc(NC(=O)c2ccccc2Cc2ccccc2)c1 [Compound 1] | > 20 |  |  |  |
| NC(=O)c1cccc(NC(=O)c2ccccc2Oc2ccc(F)cc2)c1 [Compound 3, N-(3-carbamoylphenyl)-2-(4-fluorophenoxy)benzamide] | 10 to 20 |  | < 2 |  |
| CC(C)(C)c1ccc(C(=O)Nc2cccc(S(C)(=O)=O)c2)c(Oc2ncccc2C#N)c1 [Compound 14] | 2 to 10 | < 2 | < 2 |  |
| CC(C)(C)c1ccc(C(=O)Nc2cccc(NS(C)(=O)=O)c2)c(Oc2ccc(F)cc2Cl)c1 [Compound 10] | 10 to 20 | 2 to 10 | 2 to 10 |  |
| CC(C)(C)c1ccc(C(=O)Nc2cccc(S(C)(=O)=O)c2)c(Oc2ncccc2C(F)(F)F)c1 [Compound 18] | 10 to 20 | 2 to 10 | < 2 |  |
| NC(=O)c1cccc(NC(=O)c2ccccc2Oc2ccc(Br)cc2)c1 [Compound 4] | 2 to 10 |  | < 2 |  |
| CC(C)(C)c1ccc(C(=O)Nc2cccc(S(C)(=O)=O)c2)c(Oc2cccnc2C(F)(F)F)c1 [Compound 16] | 10 to 20 | 2 to 10 | < 2 |  |
| CC(C)(C)c1ccc(C(=O)Nc2cccc(S(C)(=O)=O)c2)c(Oc2ccc(F)cc2Cl)c1 [Compound 9] | 10 to 20 | 2 to 10 | < 2 |  |
| CC(C)(C)c1ccc(C(=O)Nc2cccc(C(N)=O)c2)c(Oc2ccc(C(F)(F)F)nc2)c1 [Compound 7] | 10 to 20 | 2 to 10 | < 2 |  |
| CC(C)(C)c1ccc(C(=O)Nc2cccc(S(C)(=O)=O)c2)c(Oc2cnccc2C(F)(F)F)c1 [Compound 15] | 2 to 10 | 2 to 10 | < 2 |  |
| Cc1ncccc1Oc1cc(C(C)(C)C)ccc1C(=O)Nc1cccc(C(N)=O)c1 [Compound 6] | > 20 | > 20 | < 2 |  |
| Cc1ncccc1Oc1cc(C(C)(C)C)ccc1C(=O)Nc1cccc(S(C)(=O)=O)c1 [Compound 12] | > 20 | 2 to 10 | < 2 |  |
